Measured values published in the supplement of paper PMC10307832.

Tests used:
Assay in all cases: relative viability (nuclei count vs DMSO), 5 days (fraction); higher = more cells survive
[1] = compound: CC(C)CCN1c2nc(Nc3cc(F)c(O)c(F)c3)ncc2N(C)C(=O)C1C [BI-D1870] + CC1(C)CCC(c2ccc(Cl)cc2)=C(CN2CCN(c3ccc(C(=O)NS(=O)(=O)c4ccc(N[C@H](CCN5CCOCC5)CSc5ccccc5)c(S(=O)(=O)C(F)(F)F)c4)cc3)CC2)C1 [Navitoclax] (partner 0.5 µM)
In short: (§1)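 Values are medians from duplicate plates. Each reflects relative viability, defined as the nuclei count of treated wells over that of vehicle wells. Lung cancer cell lines in 1536-well plates were pin-tool dosed one day after seeding with one drug alone or with a fixed anchor-drug dose plus five library-drug doses (not always all listed) in √10 steps, then fixed, stained and imaged at 4× after 5 days.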

[2] = compound: O=c1ncccn1[C@@H]1O[C@H](CO)[C@@H](O)[C@H]1O [Zebularine] + Cc1cc(Nc2cc(N3CCN(C)CC3)nc(Sc3ccc(NC(=O)C4CC4)cc3)n2)n[nH]1 [Tozasertib] (partner 0.1 µM)
In short: as §1

[3] = compound: O=c1ncccn1[C@@H]1O[C@H](CO)[C@@H](O)[C@H]1O [Zebularine] + N=C(N)NC(=N)NCCc1ccccc1 [Phenformin] (partner 250 µM)
In short: as §1

[4] = compound: O=c1ncccn1[C@@H]1O[C@H](CO)[C@@H](O)[C@H]1O [Zebularine] + Nc1ncn([C@H]2C[C@H](O)[C@@H](CO)O2)c(=O)n1 [Decitabine] (partner 2 µM)
In short: as §1

**Q.** Which relative viability ([1]; first compound 0.04 µM) does the source give for UMC-11 here?
**A.** Its relative viability is 0.287.

**Q.** And the relative viability ([1]; first compound 0.1265 µM)?
**A.** Its relative viability is 0.295.

**Q.** And the relative viability ([1]; first compound 0.4 µM)?
**A.** Its relative viability is 0.311.

**Q.** And the relative viability ([1]; first compound 1.265 µM)?
**A.** Its relative viability is 0.336.

**Q.** And the relative viability ([1]; first compound 4 µM)?
**A.** Its relative viability is 0.129.

**Q.** What about the relative viability ([2]; first compound 1 µM) of the same cell line?
**A.** Its relative viability is 0.191.

**Q.** And the relative viability ([2]; first compound 3.162 µM)?
**A.** The relative viability was 0.192.

**Q.** What about the relative viability ([2]; first compound 10 µM) of the same cell line?
**A.** The relative viability was 0.219.

**Q.** And the relative viability ([2]; first compound 31.62 µM)?
**A.** Its relative viability is 0.213.

**Q.** What about the relative viability ([2]; first compound 100 µM) of the same cell line?
**A.** Its relative viability is 0.207.

**Q.** What about the relative viability ([3]; first compound 1 µM) of the same cell line?
**A.** Its relative viability is 0.282.

**Q.** What about the relative viability ([3]; first compound 3.162 µM) of the same cell line?
**A.** The relative viability was 0.344.

**Q.** What about the relative viability ([3]; first compound 10 µM) of the same cell line?
**A.** The relative viability was 0.258.

**Q.** And the relative viability ([3]; first compound 31.62 µM)?
**A.** Its relative viability is 0.327.

**Q.** What about the relative viability ([3]; first compound 100 µM) of the same cell line?
**A.** The relative viability was 0.292.

**Q.** And the relative viability ([4]; first compound 1 µM)?
**A.** Its relative viability is 0.557.

**Q.** What about the relative viability ([4]; first compound 3.162 µM) of the same cell line?
**A.** Its relative viability is 0.604.

**Q.** What about the relative viability ([4]; first compound 10 µM) of the same cell line?
**A.** Its relative viability is 0.589.

**Q.** What about the relative viability ([4]; first compound 31.62 µM) of the same cell line?
**A.** Its relative viability is 0.586.

**Q.** What about the relative viability ([4]; first compound 100 µM) of the same cell line?
**A.** The relative viability was 0.527.
